Experimental data reported in US20230044649A1, “METHODS TO ENHANCE BIOAVAVAILABILITY OF ORGANIC SMALL MOLECULES AND DEPOSITED FILMS MADE THEREFROM” (THE REGENTS OF THE UNIVERSITY OF MICHIGAN, priority 2015, published 2023).
Values after ≈ are worked out from the molar mass of the structure shown. Values belong to the compound of their own block, whether it stands above or below them.

Experiments:
Solubility at pH 7.4 = type: physicochemical
[1] = test system: ovarian carcinoma cell line, OVCAR3; experiment: Cancer cell growth inhibition by drug film, powder or DMSO solution; type: cell-based; details: for OVCAR3 cancer cells viability: after 48 hours, nominal 5 μM
Method: The printed films of BAY 11-7082 are tested by applying OVCAR3 cells solution directly onto the film, as compared to the BAY 11-7082 drug in powder form dissolved in DMSO.
See FIG. 11 showing drug application in a film form.

physchem = details: 20 °C
Method: First, solubilities of the different compounds in corresponding solvents are measured at temperature 20±1° C.

[2] = Initial dissolution rate of printed film versus loose powder (USP 2 stirring apparatus, UV-VIS); type: physicochemical
From the text: When comparing dissolution from powder form and film form for the same material and same crystal structure, D, V, Cs are constant and initial dissolution rate will be proportional to A/δ. δ and A are constant for dissolution from film since area of the film is not changing during dissolution. In a powder, δ and A are changing since particles size and shape is changing. […] Therefore only the initial rate can be compared between powder and a film.
In order to compare film form versus original powder dissolution behavior, loose powders with same weight as films are introduced into 10 ml solution without any prior treatment and stirred using stirring rod with same shape and diameter as one that is used for films. All experiments are performed at temperature […].
(§1) For dissolution rate experiments a USP 2 stirring apparatus with stirring speed of 100 rpm is used. Concentration is monitored using UV-VIS spectrometer equipped with dipping probe. As an example glass slides substrates with deposited 9 mm diameter drug films are used. Films weights are in the range of 5-80 μg. First, intrinsic dissolution rate (IDR) of films is studied and compared it to dissolution of compressed powder in form of 1.57 mm diameter pellets. IDR is defined as Equation (4): […]

[3] = Intrinsic dissolution rate (IDR) of films compared with compressed powder pellets; type: physicochemical; details: comparable to compressed pellets, about 10 ml, 20±1° C., solvent per compound as
Method: as §1
In this case (dm/dt)max is maximum slope in a dissolution curve evaluated at the start of dissolution process (m—dissolved solute mass). Glass substrates with deposited films are attached to a stirring rod having same diameter as compressed pellets rod (20 mm), assuring that hydrodynamic boundary layer thickness is same for compressed powder and deposited film. Solution volume remains constant in all experiments, about 10 ml, and temperature is 20±1° C.

[4] = Surface area of printed film and of powder; type: physicochemical
[5] = test system: breast carcinoma cell line, MCF7; experiment: Cancer cell growth inhibition by drug film, powder or DMSO solution; type: cell-based; details: after 48 hours, nominal 5 μM
[6] = powder form dissolved in growth medium

solubility (Solubility at pH 7.4): 29.25 ± 0.05 µg/mL (≈ 141 µM)
SMILES: Cc1ccc(S(=O)(=O)/C=C/C#N)cc1 [BAY 11-7082, (E)-3-(4-Methylphenylsulfonyl)-2-propenenitrile]
efficacy / viability with film form drug compared with drug dissolved in DMSO ([1]; OVCAR3 cells applied directly onto the film): No significant difference in efficacy

solubility (physchem; water): 10 ± 0.5 µg/mL (≈ 30.1 µM)
SMILES: O=C1OC2(c3ccc(O)cc3Oc3cc(O)ccc32)c2ccccc21 [fluorescein]

enhancement of initial dissolution rate in film versus loose powder ([2]; aqueous HCl buffer pH 1.2, FIG. 10(b), 19±1° C.): about 30 times | initial dissolution rate, printed film relative to powder ([2]; ibuprofen in buffer HCl 1.3): about 10 times higher | initial dissolution rate ([2]; ibuprofen in buffer HCl 1.3, 30 μg of powder): 0.0004 µg/mL/s | initial dissolution rate ([2]; ibuprofen in buffer HCl 1.3, printed film): 0.04 µg/mL/s | solubility (physchem; pH 1.2, simulated gastric fluid): 22.5 ± 0.5 µg/mL (≈ 109 µM) | intrinsic dissolution rate (IDR) [3]: 1×10^−3±3×10^−4 μg sec^−1 mm^−2 | film surface area relative to powder surface area [4]: about 5 times higher
SMILES: CC(C)Cc1ccc(C(C)C(=O)O)cc1 (stereo not drawn) [ibuprofen]

intrinsic dissolution rate (IDR) [3]: 6×10^−4±1×10^−4 μg sec^−1 mm^−2
SMILES: CC/C(=C(\c1ccccc1)c1ccc(OCCN(C)C)cc1)c1ccccc1 [tamoxifen]
MCF7 cancer cells viability ([5]; film form): 58% | MCF7 cancer cells viability [5, 6]: 79% | OVCAR3 cancer cells viability ([1]; film form): 44% | OVCAR3 cancer cells viability [1, 6]: 68%
